The nature of the data set: Human HepG2 cell viability assay in 384 well format. Type of data set: toxicity, cell-based. More on the design: dose 125 nL, time 70.5 hour; concentration not given beside the values. As to conditions: HepG2 cells, read-out: Inhibition.

For the molecule `COCC(=O)N1CCCC(C(=O)c2cnn(-c3ccc(F)cc3)c2N)C1` (stereo not drawn), the cytotoxicity at 70.5 h stood at 9.29%.

Regarding `CCOc1ccc(CN2CCC(c3[nH]ncc3C)C2)cc1CO` (stereo not drawn), the cytotoxicity at 70.5 h is -7.99%.

For `Cc1ccnc(NC(=O)c2cnc(C3CCCNC3)cn2)c1` (stereo not drawn), the cytotoxicity at 70.5 h is -4.33%.

With `Nc1no[n+]([O-])c1C(=O)NCc1ccco1`, the cytotoxicity at 70.5 h amounted to 7.08%.

`Cc1ccc(N2CC(c3nccc(C)n3)C2)nn1`: the cytotoxicity at 70.5 h is 9.5%.

For `O=C(c1cc(-c2cccnc2)[nH]n1)N1CCCC(Cc2ccccn2)C1` (stereo not drawn), the cytotoxicity at 70.5 h was 9.07%.

Turning to `CS(=O)(=O)c1cncnc1C1CCCN(C(=O)NCc2ccccc2)C1` (stereo not drawn), the cytotoxicity at 70.5 h is -6.21%.

For `CCc1nccn1CC(=O)Nc1cccc(N2CCCC2)c1`, the cytotoxicity at 70.5 h was 9.22%.

Take `CC(C)(C)c1ccc(OCC(=O)O)c(CN2C[C@H]3C[C@H](O)C[C@H]3C2)c1`: the cytotoxicity at 70.5 h is 2.38%.

`Cc1cc(C(=O)N2CCOCC2c2nc(C)c[nH]2)nc(O)n1` (stereo not drawn): the cytotoxicity at 70.5 h stood at 3.31%.

Regarding `CCN(Cc1cccnc1)CC1(C)Cc2c(N)nc(N)nc2O1` (stereo not drawn), the cytotoxicity at 70.5 h was -1.96%.

For `CC(=O)N1CCC(c2nccnc2C)CC1`, the cytotoxicity at 70.5 h was -1.76%.

As to `CC(=O)N1CCCC1(C)c1nc(C)no1` (stereo not drawn), the cytotoxicity at 70.5 h is 0.978%.

As to `Cc1nccnc1C1CCN(C(=O)C(C)C)CC1`, the cytotoxicity at 70.5 h was -5.9%.

Consider `CN1C[C@@H](c2cccc(F)c2)[C@H]2[C@H]1CCCCCN2C(=O)C1CC1`, for which the cytotoxicity at 70.5 h amounted to 2.38%.

On to `CCC(=O)N1CCCCC[C@@H]2[C@@H]1[C@H](c1cccc(F)c1)CN2C`, for which the cytotoxicity at 70.5 h stood at 16.4%.

As for `CCc1cc(C(F)(F)F)n2nc(C3CCCN3C(=O)COC)cc2n1` (stereo not drawn), the cytotoxicity at 70.5 h is -4.23%.

On to `Cn1nc(C2CC2)cc1C(=O)N1CCC(c2nnsc2S(C)(=O)=O)CC1`, for which the cytotoxicity at 70.5 h was -4.78%.

As for `O=C1NC2(CCc3ccccc31)CCN(Cc1cccnc1)C2` (stereo not drawn), the cytotoxicity at 70.5 h stood at 3.7%.

Turning to `Cc1ccc2c(c1)c(C)cc(=O)n2CC(=O)O`, the cytotoxicity at 70.5 h is -2.86%.

For the molecule `Cc1cc(C(F)(F)F)n2nc(C3CCCN(S(C)(=O)=O)C3)cc2n1` (stereo not drawn), the cytotoxicity at 70.5 h is -2.03%.

In the case of `O=C1NC2(CCN(C(=O)CN3CCOCC3)CC2)Nc2ccc(Cl)cc21`, the cytotoxicity at 70.5 h is -2.29%.

`Cc1c(CNC2CCN(c3ccccc3OC(F)F)C2)cnn1C` (stereo not drawn): the cytotoxicity at 70.5 h is -3.92%.

With `O=c1oc2ccccc2n1CCN(CC1CCOC1)C1CC1` (stereo not drawn), the cytotoxicity at 70.5 h was -11.1%.

For `Cc1cc(C)n(Cc2cccc(C(=O)N3CCOCC3(C)C)c2)n1`, the cytotoxicity at 70.5 h is -10%.

Take `Cc1noc(CN2CCN(C(C)C(=O)NCc3cccs3)CC2)n1` (stereo not drawn): the cytotoxicity at 70.5 h is 13.6%.

For the molecule `CC(C)(C)n1ncc(NCc2ccccc2)c(Cl)c1=O`, the cytotoxicity at 70.5 h is 22.2%.

On to `O=C(NCCNC(=O)C1CCN(c2ncccn2)CC1)c1ccoc1`, for which the cytotoxicity at 70.5 h was 6.55%.

For the molecule `CC(C)CN1CCC(C(=O)NCCNC(=O)c2ccco2)CC1`, the cytotoxicity at 70.5 h is -5.07%.

Consider `O=C(NCCNC(=O)C1CCN(CC(F)(F)F)CC1)c1ccoc1`, for which the cytotoxicity at 70.5 h was -4.81%.

Regarding `CN1CCN(C(=O)Cc2csc(-c3ccsc3)n2)C(c2ccccc2)C1` (stereo not drawn), the cytotoxicity at 70.5 h is -3.75%.

Consider `CC(NCc1ccccn1)c1ccc(N2CCN(C)CC2)c(F)c1` (stereo not drawn), for which the cytotoxicity at 70.5 h turned out to be 11.1%.

Take `CC(C)NC(=O)CN(C)C(=O)c1c(Cl)c2ccccc2n1C`: the cytotoxicity at 70.5 h is -0.0324%.

For the molecule `CC(C)c1nc(CC(=O)N2CCN(C)CC2c2ccccc2)cs1` (stereo not drawn), the cytotoxicity at 70.5 h was found to be 12.9%.

As for `CCC(Nc1ncccn1)c1ccc(OC)cc1` (stereo not drawn), the cytotoxicity at 70.5 h was 6.83%.

For the molecule `N#Cc1ccc(S(=O)(=O)Nc2ccc(N3CCOCC3)cn2)cc1`, the cytotoxicity at 70.5 h came out at 0.03%.

Turning to `Cc1cnn(CC2CCN(CC(O)c3ccccc3F)CC2)c1` (stereo not drawn), the cytotoxicity at 70.5 h worked out at 8.3%.

Consider `N#Cc1cnn(C(=O)COc2ccccc2F)c1N`, for which the cytotoxicity at 70.5 h stood at 1.04%.

Regarding `CN(C)CCOc1cc(NC(=O)COCC(F)(F)F)ccn1`, the cytotoxicity at 70.5 h was -2.8%.

`Cc1cc(C(F)(F)F)nc(N(C)Cc2c(C)noc2C)n1`: the cytotoxicity at 70.5 h was 13.3%.

Take `COCc1ccccc1C(=O)NS(=O)(=O)CCCC#N`: the cytotoxicity at 70.5 h is -3.12%.

On to `Cc1cccc(CC(=O)NC2CCN(C(=O)NC(C)(C)C)CC2)c1`, for which the cytotoxicity at 70.5 h was found to be 12.2%.

For `Cc1cc(CN2CCN(C(C)C(=O)NCc3cccs3)CC2)no1` (stereo not drawn), the cytotoxicity at 70.5 h is -2.27%.

For `Cc1cnn(CC2CCN(CC(O)CN3CCC(C)CC3)CC2)c1` (stereo not drawn), the cytotoxicity at 70.5 h was -4.29%.

Take `CC(C)NC(=O)CN(C)C(=O)c1c(Br)c2ccccc2n1C`: the cytotoxicity at 70.5 h is -4.11%.

For `COc1ccc(SC(C)C(=O)N2CCC(NC(=O)C3CC3)CC2)cc1` (stereo not drawn), the cytotoxicity at 70.5 h is 8.09%.

In the case of `Cc1noc(C)c1CN(C)c1nccc(C(F)(F)F)n1`, the cytotoxicity at 70.5 h amounted to 4.31%.

`O=C(CCn1cncn1)NCC1CCOC1` (stereo not drawn): the cytotoxicity at 70.5 h is -6.75%.

As for `O=C(c1ccc(Oc2cccnc2)cc1)N1CCN(CCO)CC1`, the cytotoxicity at 70.5 h was -18.5%.

As for `Cc1cnc(CN2CCCCC2c2nc(-c3ccccc3)no2)cn1` (stereo not drawn), the cytotoxicity at 70.5 h was -7.59%.

On to `O=C(Nc1cc(Cl)ccc1N1CCCCC1)c1ccccn1`, for which the cytotoxicity at 70.5 h is 7.77%.

`Cc1cc(C)cc(OCCNC(=O)C(C)Sc2nncn2C)c1` (stereo not drawn): the cytotoxicity at 70.5 h is -10.3%.

`O=C(c1cc(Br)c[nH]1)N1CCN(Cc2ccco2)CC1`: the cytotoxicity at 70.5 h is 5.49%.

Consider `CC(C)CNC(=O)C[S+]([O-])Cc1csc(C2CCCCC2)n1` (stereo not drawn), for which the cytotoxicity at 70.5 h is -13%.

For the molecule `CCC(CC(=O)NS(=O)(=O)C(C)C)c1ccccc1` (stereo not drawn), the cytotoxicity at 70.5 h worked out at 11.1%.

As for `O=C(Nc1c(N2CCCC2)cccc1N1CCCC1)c1cnsn1`, the cytotoxicity at 70.5 h was -16%.

Consider `CC(C)OCc1ccc(CNC(=O)NC2(CO)CCCC2)cc1`, for which the cytotoxicity at 70.5 h was -10.3%.

As for `CC(C)Oc1cccc(CNC(=O)NC2(CO)CCCC2)c1`, the cytotoxicity at 70.5 h was -11.2%.

On to `Cc1noc(C)c1CN1CCCCC1c1nc(-c2ccccc2)no1` (stereo not drawn), for which the cytotoxicity at 70.5 h is -9.69%.

In the case of `COCCN(Cc1ccccn1)C(=O)CC1OCCc2ccsc21` (stereo not drawn), the cytotoxicity at 70.5 h was -1.83%.

Consider `CCCc1nn(Cc2csc(CC)n2)c(=O)o1`, for which the cytotoxicity at 70.5 h is -4.3%.

On to `Cc1cc(C2CCCN2C(=O)COc2ccc(CC#N)cc2)on1` (stereo not drawn), for which the cytotoxicity at 70.5 h is -9.16%.

Turning to `COc1ccc2c(c1)CC(NCc1cccc(OCC(N)=O)c1)CC2` (stereo not drawn), the cytotoxicity at 70.5 h was -10.5%.

In the case of `Cn1cc(-c2noc(C3(C)CCOCC3)n2)cn1`, the cytotoxicity at 70.5 h amounted to 11.7%.

In the case of `COc1ccc(C2(c3nc(-c4cccnc4)no3)CCOCC2)cc1`, the cytotoxicity at 70.5 h worked out at 34.4%.

Consider `O=C(O)C1(Cc2ccc(-c3cccs3)cc2)CCNC1` (stereo not drawn), for which the cytotoxicity at 70.5 h is -2.56%.

On to `COc1cc2c(cc1CNC(Cc1cccs1)c1nccs1)OCO2` (stereo not drawn), for which the cytotoxicity at 70.5 h worked out at 18.9%.

For the molecule `Cc1cc2c(cc1CNC(Cc1cccs1)c1nccs1)OCO2` (stereo not drawn), the cytotoxicity at 70.5 h turned out to be 1.05%.

For `Cc1ccc(CNC(C)c2ccc(N3CCN(C)CC3)c(F)c2)o1` (stereo not drawn), the cytotoxicity at 70.5 h was found to be 0.0517%.

Take `CC(C)(CN)NS(=O)(=O)c1cccc(F)c1F`: the cytotoxicity at 70.5 h is 9.16%.

Consider `Cc1c(F)cccc1S(=O)(=O)NC(C)(C)CN`, for which the cytotoxicity at 70.5 h was -3.29%.

Regarding `CC(NCc1ccncc1)c1ccc(N2CCN(C)CC2)c(F)c1` (stereo not drawn), the cytotoxicity at 70.5 h stood at 4.11%.

Take `Cc1nc(Nc2nncs2)cc(C2CNC2)n1`: the cytotoxicity at 70.5 h was -5.34%.

Values taken from ChEMBL document CHEMBL3507680, “University of Dundee, Gates Library screen for HepG2 cell viability”.
